The target of assay [1] is T1, GPR84 (Homo sapiens (Human), UniProt Q9NQS5). Nature of the assay: Gai biosensor BRET assay (GPR84-mediated activation of Gai, antagonist mode against agonist ZQ-16). In kind it is cell-based. The conditions noted are these: for IC50: HEK293 cells, 200 nmol/L GPR84 agonist ZQ-16, read-out: hGPR84 IC50; for inhibition at 2 µM: compound tested at 2 μM (concentration code A); for inhibition at 10 µM: compound tested at 10 μM (concentration code D). In outline:
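Transiently transfected HEK293 cells expressing GPR84, Gαi2-Rluc8, GFP10-Gγ2 and Gβ1, in Tyrode's buffer pH 7.5. Compounds pre-incubated 5 min at 37° C, then 200 nmol/L ZQ-16 for 5 min at room temperature; BRET² with coelenterazine 400A, ligand-promoted net BRET after background and vehicle subtraction.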
Target sequence in this assay (Q9NQS5 whole entry): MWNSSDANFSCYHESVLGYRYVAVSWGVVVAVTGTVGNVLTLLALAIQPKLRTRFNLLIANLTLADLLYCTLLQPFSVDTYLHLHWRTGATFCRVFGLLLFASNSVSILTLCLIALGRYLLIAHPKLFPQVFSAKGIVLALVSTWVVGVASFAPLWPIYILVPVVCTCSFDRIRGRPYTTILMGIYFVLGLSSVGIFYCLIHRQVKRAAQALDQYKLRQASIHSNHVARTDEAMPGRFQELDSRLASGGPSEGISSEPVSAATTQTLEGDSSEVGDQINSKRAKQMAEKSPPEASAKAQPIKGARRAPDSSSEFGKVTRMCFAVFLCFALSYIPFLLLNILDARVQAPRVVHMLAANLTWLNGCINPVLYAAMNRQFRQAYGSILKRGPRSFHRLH
(In general: In BRET a luciferase serves as donor, and the signal depends on an acceptor being close.)

In the next assay the test system is neutrophils. Nature of the assay: Neutrophil migration assay (embelin as chemotactic agent, transwell, ATPlite readout). The conditions noted are these: for Human Neutrophil migration inhibition - fold potency to Control Compound: IC50 normalized to GPR84 antagonist Control Compound; for IC50: Neutrophil, human neutrophils, embelin as chemotactic agent, read-out: Human Neutrophil migration inhibition IC50. Type of assay: cell-based. The procedure: Neutrophil migration assay. After isolation, neutrophils were resuspended in chemotaxis buffer (DMEM supplemented with 10 mM HEPES) at a concentration of 8.9×10^6 cells/ml. In a 96-well plate, 20 μl of compound solution in chemotaxis buffer is added to 180 μl of cell suspension. After incubation at 37° C. for 30 minutes, 75 μL of cell suspension is transferred in the upper chamber of a 5 μm pore size Corning HTS transwell. 235 μL of chemotaxis buffer containing the chemotactic agent (embelin) is added to the lower chamber of the transwell. After a 60-minute incubation time at 37° C. in 5% CO2, the upper chamber of the transwell is removed and the plate is centrifuged at 1500 rpm for 6 minutes. Supernatant is removed and cells resuspended in 100 ul of PBS. ATP content was assessed using ATPlite Luminescence Assay System® according to manufacturer instructions (Perkin Elmer, Buckinghamshire, UK). Briefly, 50 μL of ATPlite buffer and 50 μL of lysis solution is added to the lower chamber of the Transwells. After incubation at room temperature, in the dark with constant agitation for 5 minutes, 150 μL of cell lysate is transferred in a 96 wells white plate and incubated for 10 minutes in the dark. Luminescence is read on a TECAN plate reader, Infinite M1000 (Tecan, Morrisville, NC).
The compound numbers correspond to the compound numbers in Table 1. […] Normalization of the results takes the donor's variation into account.

Assay [2] has as its system mouse dextran sodium sulfate-induced chronic inflammatory bowel disease model. The conditions noted are these: once-daily doses of 3 and 10 mg/kg, mouse DSS-induced chronic IBD model; cited from earlier work.
Assay [3] deals with T1, GPR84. The conditions noted are these: literature (Wang et al. 2006); read-out: potency of GPR84 activation; cited from earlier work.
Target sequence in this assay (Q9NQS5 whole entry, species assumed): as the sequence (Q9NQS5 whole entry) above

Where only a bound is given, the exact number is not on record here.

As usually defined, the inhibition is the share of the control response that was lost under treatment. Low readings indicate little suppression, high ones strong suppression. In the case of `Cc1cc(OCC2COCCO2)cc(=O)n1Cc1cccc(C#CC2CC2)c1` (centres unmarked) [Compound I-2], at GPR84 [1], the IC50 is less than 5 µM. The molecule also yielded an inhibition at 25 µM at GPR84 [1] (compound tested at 25 μM (concentration code G)) of more than 75%. In the assay on neutrophils, the “Human Neutrophil migration inhibition - fold potency to Control Compound” value is “C (IC50≤0.5-fold relative to Control Compound)” and the IC50 is more than 3 µM.
On GPR84 [1], `Cc1cc(OC[C@H]2COc3ccccc3O2)cc(=O)n1Cc1cccc(C#CC2CC2)c1` [Compound I-30] showed an inhibition at 2 µM of 25 to 50%. In the assay with neutrophils, the “Human Neutrophil migration inhibition - fold potency to Control Compound” value was “C (IC50≤0.5-fold relative to Control Compound)” and the IC50 lay within 1 to 3 µM.
As to `Cc1cc(OCC2CCCOC2)cc(=O)n1[C@H](C)c1ccc(C#CC2CC2)cc1` (some centres unmarked) [Compound I-222], the inhibition at 10 µM on GPR84 [1] is more than 75%. For the same molecule, the IC50 in the assay on neutrophils fell in the range of 1 to 3 µM.
`Cc1cc(OCc2ncccn2)cc(=O)n1[C@H](C)c1ccc(C#CC2CC2)cc1` [Compound I-223]: on GPR84 [1], the IC50 was less than 5 µM and the inhibition at 10 µM is more than 75%. Moreover, in the assay with neutrophils, the “Human Neutrophil migration inhibition - fold potency to Control Compound” value is given as “B (IC50 of >0.5-≤1.0-fold relative to Control Compound)” and the IC50 is not above 0.3 µM.
`Cc1cc(OCc2cnn(C)n2)cc(=O)n1[C@H](C)c1ccc(C#CC2CC2)cc1` [Compound I-358]: the inhibition at 10 µM at GPR84 [1] is more than 75%.
For `Cc1cc(OCc2cnnn2C)cc(=O)n1[C@H](C)c1ccc(C#CC2CC2)cc1` [Compound I-359], on GPR84 [1], the IC50 is less than 5 µM and the inhibition at 10 µM is more than 75%.
On to `Cc1cc(NC(=O)c2ncccn2)cc(=O)n1[C@H](C)c1ccc(C#CC2CC2)cc1` [Compound I-360], for which, on GPR84 [1], the IC50 was less than 5 µM and the inhibition at 10 µM was more than 75%.
Regarding `Cc1cc(OCc2nccn2C)cc(=O)n1C(C)c1ccc(C#CC2CC2)c(F)c1` (centres unmarked) [Compound I-361], at GPR84 [1], the IC50 is less than 5 µM and the inhibition at 2 µM is more than 75%.
On GPR84 [1], `Cc1cc(OCc2ncccn2)cc(=O)n1C(C)c1cc(F)c(C#CC2CC2)c(F)c1` (centres unmarked) [Compound I-362] registered an inhibition at 10 µM of more than 75%.
In the case of `Cc1cc(OCc2cccnn2)cc(=O)n1C(C)c1ccc(C#CC2CC2)c(F)c1` (centres unmarked) [Compound I-363], on GPR84 [1], the IC50 is less than 5 µM and the inhibition at 2 µM was more than 75%.
Turning to `Cc1cc(OCc2cncnc2)cc(=O)n1C(C)c1ccc(C#CC2CC2)c(F)c1` (centres unmarked) [Compound I-364], at GPR84 [1], the IC50 was less than 5 µM and the inhibition at 10 µM was more than 75%.
As for `Cc1cc(OCc2ncco2)cc(=O)n1C(C)c1ccc(C#CC2CC2)c(F)c1` (centres unmarked) [Compound I-365], at GPR84 [1], the inhibition at 10 µM was more than 75%.
`Cc1cc(OCc2ncccn2)cc(=O)n1C(C)c1ccc(C#CC2CCC2)c(F)c1` (centres unmarked) [Compound I-366] showed an inhibition at 10 µM on GPR84 [1] of more than 75%.
On GPR84 [1], `Cc1cc(OCc2ncccn2)cc(=O)n1C(C)C1CCN(c2ccc(C3CC3)cc2)CC1` (centres unmarked) [Compound I-368] returned an inhibition at 10 µM of less than 25%.
On to `Cc1cc(OCc2c(F)ccc[n+]2[O-])cc(=O)n1[C@H](C)c1ccc(C#CC2CC2)cc1` [Compound I-369], for which the inhibition at 10 µM on GPR84 [1] was more than 75%.
For `Cc1cc(N(C)Cc2ncccn2)cc(=O)n1[C@H](C)c1ccc(C#CC2CC2)cc1` [Compound I-372], the inhibition at 10 µM on GPR84 [1] was more than 75%.
For the molecule `Cc1cc([C@@H](C)n2c(C)cc(OCc3ncccn3)cc2=O)ccc1C#CC1CC1` [Compound I-373], on GPR84 [1], the inhibition at 10 µM is more than 75%.
For `Cc1cc(OC[C@@H]2COCCO2)cc(=O)n1[C@H](C)c1ccc(C#CC2CC2)cc1` [Compound I-396], the IC50 at GPR84 [1] is less than 5 µM.
With `O=c1nc(OC[C@@H]2COCCO2)cc2n1CCc1cc(C#CC3CC3)ccc1-2` [GLPG1205], in assay [2], the “disease activity index score” value was “reduced” and the neutrophil infiltration result is on record as “reduced”.
Consider `CCCCCCCCCCCC(=O)O` [lauric acid], for which, at GPR84 [3], the EC50 is 11 µM.

Source of the values: patent US20250340543A1, “GPR84 ANTAGONISTS AND USES THEREOF” (Liminal BioSciences Limited, priority 2021, published 2025).
